Assay type in all cases: biochemical
In one experiment the target is T1, full-length human PHD1 (Homo sapiens, UniProt Q96KS0).
T1 construct: FLAG (N); purchased Active Motif (Carlsbad, Calif., USA) 81064; host or cells: baculovirus expression system
The experiment can be described thus: TR-FRET assay for PHD enzymes, PHD1. The source says:
(§1) The resulting proximity of the donor fluorophore complex, monoclonal antibody anti-6His-Terbium (Tb)-cryptate Gold, bound to the His-tagged VHL protein, EloB, EloC complex (His-VBC) and the acceptor fluorophore, SA-D2 complex, bound to HIF-1α-hydroxyproline results in a fluorescence resonance energy transfer signal that can be detected and quantified
Recombinant human PHD1 protein (catalog #81064, Lot #24717001) was purchased from Active Motif (Carlsbad, Calif., USA). PHD1 was expressed in a baculovirus expression system as the full-length protein (NCBI accession number NP_542770.2) with an N-terminal FLAG tag (molecular weight 44.9 kDa). Purity (>90%) was assessed by SDS-PAGE.
(§2) For this, 5 μL PHD inhibitor compound was serially diluted with dilution buffer (50 mM HEPES [4-(2-hydroxyethyl)-1-piperazineethanesulfonic acid] pH 7.5, 50 mM sodium chloride [NaCl], 0.01% Tween-20, 0.01% purified bovine serum albumin [BSA]) and mixed with 5 μL PHD enzyme mix prepared as a 4× concentrate in the dilution buffer containing PHD enzyme (60 nM PHD1, 20 nM PHD2, 140 nM PHD3), 40 μM ferrous ammonium sulfate (FAS), 4 mM sodium (Na) ascorbate.
(§3) The IC50 values (mean, standard deviation, standard error of the mean, geometric mean and 95% confidence interval) were determined using a four-parameter curve-fit using GraphPad Prism 7.0 (GraphPad, La Jolla, Calif., USA) and represent the compound concentration plotted against the calculated ratio of 665 nm and 615 nm.
In general terms: TR-FRET usually uses a lanthanide donor and a delayed reading to cut background.

The next experiment has as its target T2, full-length human PHD2 (Homo sapiens, UniProt Q9GZT9).
T2 construct: The PHD2 construct contained amino acids 1 to 426 of PHD2; His tag (N, cleaved yes); TEV protease cleavage site (N, cleaved yes); host or cells: Sf9 insect cells (baculovirus)
The experiment can be described thus: TR-FRET assay for PHD enzymes, PHD2. As to conditions: read-out: PHD2 IC5 0. As for the experimental part: as §1, §2, §3

The target of the next experiment is T3, full-length human PHD3 (Homo sapiens, UniProt Q9H6Z9).
T3 construct: 6-His (N); purchased Active Motif (Carlsbad, Calif., USA) 81033; host or cells: E. coli
The experiment can be described thus: TR-FRET assay for PHD enzymes, PHD3.
Excerpt: as §1
Recombinant human PHD3 protein (molecular weight 31.1 kDa) was purchased from Active Motif (Carlsbad, Calif., USA). It was expressed in E. coli as the full-length protein (NCBI accession number NP_071356.1) with an N-terminal 6-His tag (catalog #81033, Lot #24417001).
as §2, §3

Bounds are passed on as bounds.

T3 sequence (Q9H6Z9 whole entry): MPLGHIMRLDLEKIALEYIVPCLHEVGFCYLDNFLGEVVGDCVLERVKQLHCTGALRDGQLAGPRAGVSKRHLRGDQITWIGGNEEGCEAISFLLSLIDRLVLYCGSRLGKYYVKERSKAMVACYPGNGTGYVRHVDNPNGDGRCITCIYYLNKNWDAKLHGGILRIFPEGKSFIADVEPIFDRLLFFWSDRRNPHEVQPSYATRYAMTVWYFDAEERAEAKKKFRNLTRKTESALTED
T2 sequence (Q9GZT9 whole entry, the tested form may be a part): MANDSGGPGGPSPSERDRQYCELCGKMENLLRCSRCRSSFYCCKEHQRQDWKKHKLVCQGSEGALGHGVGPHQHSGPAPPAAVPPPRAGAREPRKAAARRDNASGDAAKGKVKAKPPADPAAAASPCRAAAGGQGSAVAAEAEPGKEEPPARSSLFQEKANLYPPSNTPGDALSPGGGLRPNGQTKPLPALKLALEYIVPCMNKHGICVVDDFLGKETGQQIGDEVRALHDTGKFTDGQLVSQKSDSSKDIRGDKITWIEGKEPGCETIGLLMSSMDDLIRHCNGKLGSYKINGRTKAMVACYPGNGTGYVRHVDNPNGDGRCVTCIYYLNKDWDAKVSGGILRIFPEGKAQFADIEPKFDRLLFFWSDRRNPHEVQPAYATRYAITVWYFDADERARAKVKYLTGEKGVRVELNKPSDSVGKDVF
T1 sequence (Q96KS0 whole entry): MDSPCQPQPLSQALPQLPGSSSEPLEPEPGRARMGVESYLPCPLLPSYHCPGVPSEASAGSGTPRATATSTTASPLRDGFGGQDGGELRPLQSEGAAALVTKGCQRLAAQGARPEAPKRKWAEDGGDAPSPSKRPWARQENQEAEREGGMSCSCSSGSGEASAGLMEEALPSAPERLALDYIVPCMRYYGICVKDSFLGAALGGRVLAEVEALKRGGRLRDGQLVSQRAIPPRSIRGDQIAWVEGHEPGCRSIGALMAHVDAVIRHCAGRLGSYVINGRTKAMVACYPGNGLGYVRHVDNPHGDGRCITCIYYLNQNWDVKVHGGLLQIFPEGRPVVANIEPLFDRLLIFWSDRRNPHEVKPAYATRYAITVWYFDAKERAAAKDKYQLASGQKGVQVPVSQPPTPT

For the molecule `N#Cc1cc(F)c(-c2cnn(-c3ccc(C(=O)O)cn3)c2O)cc1F` [Compound 12, 6-(4-(4-Cyano-2,5-difluorophenyl)-5-hydroxy-1H-pyrazol-1-yl)nicotinic acid], the IC50 was less than 100 nM against full-length human PHD1, less than 100 nM at full-length human PHD2 and 100 to 1000 nM against full-length human PHD3.

Regarding `N#Cc1ccc(-c2cnn(-c3ccc(C(=O)O)cn3)c2O)cc1F` [Compound 13, 6-(4-(4-cyano-3-fluorophenyl)-5-hydroxy-1H-pyrazol-1-yl)nicotinic acid], the IC50 against full-length human PHD1, on full-length human PHD2 and against full-length human PHD3 was less than 100 nM in each case.

Take `Cc1cc(-c2cnn(-c3ccc(C(=O)O)cn3)c2O)ccc1O` [Compound 16, 6-(5-hydroxy-4-(4-hydroxy-3-methylphenyl)-1H-pyrazol-1-yl)nicotinic acid]: the results for the IC50 against full-length human PHD1, on full-length human PHD2 and on full-length human PHD3 were 100 to 1000 nM, 100 to 1000 nM and 1000 to 10000 nM, respectively.

Consider `O=C(O)c1ccc(-n2ncc(-c3ccc(Cl)nc3)c2O)nc1` [Compound 17, 6-(4-(6-chloropyridin-3-yl)-5-hydroxy-1H-pyrazol-1-yl)nicotinic acid], for which the IC50 on full-length human PHD1, on full-length human PHD2 and against full-length human PHD3 was less than 100 nM throughout.

As to `Cc1cc(-n2nc(C)c(-c3ccc(C#N)cc3)c2O)ncc1C(=O)O` [Compound 18, 6-(4-(4-cyanophenyl)-5-hydroxy-3-methyl-1H-pyrazol-1-yl)-4-methylnicotinic acid], the IC50 on full-length human PHD1, on full-length human PHD2 and on full-length human PHD3 was less than 100 nM throughout.

For the molecule `N#Cc1ccc(-c2cnn(-c3ccc(C(=O)O)cn3)c2O)c(O)c1` [Compound 21, 6-(4-(4-cyano-2-hydroxyphenyl)-5-hydroxy-1H-pyrazol-1-yl)nicotinic acid], the IC50 on full-length human PHD1 is less than 100 nM; on full-length human PHD2 it was less than 100 nM; on full-length human PHD3 it was 100 to 1000 nM.

As to `Cc1cc(C#N)ccc1-c1c(C)nn(-c2ccc(C(=O)O)cn2)c1O` [Compound 24, 6-(4-(4-cyano-2-methylphenyl)-5-hydroxy-3-methyl-1H-pyrazol-1-yl)nicotinic acid], the IC50 against full-length human PHD1, on full-length human PHD2 and at full-length human PHD3 was less than 100 nM each time.

On to `Cc1nn(-c2ccc(C(=O)O)cn2)c(O)c1-c1ccc(Cl)c(F)c1` [Compound 26, 6-(4-(4-chloro-3-fluorophenyl)-5-hydroxy-3-methyl-1H-pyrazol-1-yl)nicotinic acid], for which the IC50 was less than 100 nM against full-length human PHD1, less than 100 nM at full-length human PHD2 and 100 to 1000 nM against full-length human PHD3.

In the case of `Cc1nn(-c2ccc(C(=O)O)cn2)c(O)c1-c1ccc(Cl)cc1F` [Compound 28, 6-(4-(4-chloro-2-fluorophenyl)-5-hydroxy-3-methyl-1H-pyrazol-1-yl)nicotinic acid], the figures for the IC50 against full-length human PHD1, on full-length human PHD2 and against full-length human PHD3 were less than 100 nM, 100 to 1000 nM and 100 to 1000 nM, respectively.

As for `COc1cc(-c2cnn(-c3ccc(C(=O)OC(C)(C)C)cn3)c2O)ccn1` [Compound 35, Tert-butyl 6-(5-hydroxy-4-(2-methoxypyridin-4-yl)-1H-pyrazol-1-yl)nicotinate], the IC50 at full-length human PHD1, on full-length human PHD2 and against full-length human PHD3 was less than 100 nM each time.

In the case of `CCOC(=O)c1ccc(-n2ncc(-c3ccc(C#N)cc3)c2O)nc1` [Compound 36, Ethyl 6-(4-(4-cyanophenyl)-5-hydroxy-1H-pyrazol-1-yl)nicotinate], the IC50 against full-length human PHD1, at full-length human PHD2 and against full-length human PHD3 was less than 100 nM in each case.

As for `CC(C)OC(=O)c1ccc(-n2ncc(-c3ccc(C#N)cc3)c2O)nc1` [Compound 37, Isopropyl 6-(4-(4-cyanophenyl)-5-hydroxy-1H-pyrazol-1-yl)nicotinate], the IC50 at full-length human PHD1, on full-length human PHD2 and against full-length human PHD3 was less than 100 nM in each case.

Regarding `CC(C)(C)OC(=O)c1ccc(-n2ncc(-c3ccc(C#N)cc3)c2O)nc1` [Compound 38, Tert-butyl 6-(4-(4-cyanophenyl)-5-hydroxy-1H-pyrazol-1-yl)nicotinate], the IC50 is less than 100 nM on full-length human PHD1, less than 100 nM on full-length human PHD2 and 1000 to 10000 nM on full-length human PHD3.

With `O=C(O)c1ccc(-n2ncc(-c3ccc(Cl)cc3O)c2O)nc1` [Compound 39, 6-(4-(4-chloro-2-hydroxyphenyl)-5-hydroxy-1H-pyrazol-1-yl)nicotinic acid], the IC50 is 100 to 1000 nM on full-length human PHD1, less than 100 nM at full-length human PHD2 and 1000 to 10000 nM against full-length human PHD3.
